Columns and labels:
[1] = system: rabbit serum obtained by immunizing a rabbit with the SARS-CoV strain Frankfurt 1; assay type: binding; parameters: Binding of a rabbit serum to linear peptides / Binding of a rabbit serum to looped peptides / Rabbit serum linear peptides / Rabbit serum looped peptides / Binding of a rabbit serum to linear peptides of protein N of SARS-CoV Urbani (Rabbit serum linear peptides) / Binding of a rabbit serum to looped/cyclic peptides of protein N of SARS-CoV Urbani (Rabbit serum looped peptides): unit not given here
[2] = system: antibodies in sera from SARS patients (sera 1a, 1b, 2, 6, 37, 62, London, SARS-yellow, SARS-green); assay type: binding, human; parameters: Binding of serum 6 to linear peptides of protein X1 of SARS-CoV Urbani / Binding of serum 37 to linear peptides of protein X1 of SARS-CoV Urbani / Binding of serum 6 to looped/cyclic peptide (PEPSCAN-ELISA) / Binding of serum 37 to looped/cyclic peptide (PEPSCAN-ELISA) / Binding of serum 37 to looped/cyclic peptides of protein X1 of SARS-CoV Urbani / Binding of serum 6 to linear peptides of protein X2 / Binding of serum 37 to linear peptides of protein X2 / Binding of serum 37 to looped/cyclic peptides of protein X2 of SARS-CoV Urbani / Binding of serum 6 to linear peptides of protein M of SARS-CoV Urbani / Binding of serum 37 to linear peptides of protein M of SARS-CoV Urbani / Binding of serum 6 to looped/cyclic peptides of protein M of SARS-CoV Urbani / Binding of serum 37 to looped/cyclic peptides of protein M of SARS-CoV Urbani / Binding of serum 6 to linear peptides of protein X3 of SARS-CoV Urbani / Binding of serum 37 to linear peptides of protein X3 of SARS-CoV Urbani / Binding of serum 37 to looped/cyclic peptides of protein X3 of SARS-CoV Urbani / Binding of serum 6 to linear peptides of protein X4 of SARS-CoV Urbani / Binding of serum 37 to linear peptides of protein X4 of SARS-CoV Urbani / Binding of serum 37 to looped/cyclic peptides of protein X4 of SARS-CoV Urbani / Binding of serum 6 to linear peptides of protein X5 of SARS-CoV Urbani / Binding of serum 37 to linear peptides of protein X5 of SARS-CoV Urbani / Binding of serum 37 to looped/cyclic peptides of protein X5 of SARS-CoV Urbani / Binding of serum 6 to linear peptides of protein N of SARS-CoV Urbani / Binding of serum 37 to linear peptides of protein N of SARS-CoV Urbani / Binding of serum 6 to linear peptide (PEPSCAN-ELISA) / Binding of serum 1a to looped/cyclic peptides of protein N of SARS-CoV Urbani / Binding of serum 1b to looped/cyclic peptides of protein N of SARS-CoV Urbani / Binding of serum 2 to looped/cyclic peptides of protein N of SARS-CoV Urbani / Binding of serum 6 to looped/cyclic peptides of protein N of SARS-CoV Urbani / Binding of serum 37 to looped/cyclic peptides of protein N of SARS-CoV Urbani / Binding of serum 62 to looped/cyclic peptides of protein N of SARS-CoV Urbani / Binding of serum London to looped/cyclic peptides of protein N of SARS-CoV Urbani / Binding of serum SARS-green to looped/cyclic peptides of protein N of SARS-CoV Urbani: unit not given here
[3] = system: recombinant human anti-SARS-CoV antibody 03-018; assay type: binding; parameters: Binding of antibody 03-018 to linear peptides of the N protein of SARS-CoV Urbani / Binding of antibody 03-018 to looped/cyclic peptides of the N protein of SARS-CoV Urbani: unit not given here
[4] = system: control sera (pooled serum of ten healthy LUMC hospital workers; commercial negative donor pooled serum from the Dutch bloodbank); assay type: binding, human; parameters: Binding of Control serum LUMC to linear peptides / Binding of Control serum Blood-bank to linear peptides / Binding of Control serum LUMC to looped peptides / Binding of Control Serum Blood-Bank to Looped peptides / Binding of Control serum LUMC to linear peptides of the protein M of SARS-CoV Urbani / Binding of Control serum Blood-bank to linear peptides of the protein M of SARS-CoV Urbani / Binding of Control serum LUMC to looped peptides of the protein M of SARS-CoV Urbani / Binding of Control Serum Blood-Bank to Looped peptides of the protein M of SARS-CoV Urbani: unit not given here

Row | Sequence | Binding of a rabbit serum to linear peptides of protein N of SARS-CoV Urbani (Rabbit serum linear peptides) [1] | Binding of a rabbit serum to looped/cyclic peptides of protein N of SARS-CoV Urbani (Rabbit serum looped peptides) [1] | Binding of serum 1a to linear peptides of protein N of SARS-CoV Urbani [2] | Binding of serum 1a to looped/cyclic peptides of protein N of SARS-CoV Urbani [2] | Binding of serum 1b to linear peptides of protein N of SARS-CoV Urbani [2] | Binding of serum 1b to looped/cyclic peptides of protein N of SARS-CoV Urbani [2] | Binding of serum 2 to linear peptides of protein N of SARS-CoV Urbani [2] | Binding of serum 2 to looped/cyclic peptides of protein N of SARS-CoV Urbani [2] | Binding of serum 6 to linear peptides of protein N of SARS-CoV Urbani [2] | Binding of serum 6 to looped/cyclic peptides of protein N of SARS-CoV Urbani [2] | Binding of serum 37 to linear peptides of protein N of SARS-CoV Urbani [2] | Binding of serum 37 to looped/cyclic peptides of protein N of SARS-CoV Urbani [2] | Binding of serum 62 to linear peptides of protein N of SARS-CoV Urbani [2] | Binding of serum 62 to looped/cyclic peptides of protein N of SARS-CoV Urbani [2] | Binding of serum London to linear peptides of protein N of SARS-CoV Urbani [2] | Binding of serum London to looped/cyclic peptides of protein N of SARS-CoV Urbani [2] | Binding of serum SARS-green to looped/cyclic peptides of protein N of SARS-CoV Urbani [2] | Binding of serum SARS-yellow to looped/cyclic peptides of protein N of SARS-CoV Urbani [2] | Binding of antibody 03-018 to linear peptides of the N protein of SARS-CoV Urbani [3] | Binding of antibody 03-018 to looped/cyclic peptides of the N protein of SARS-CoV Urbani [3] | also measured
1 | VTLLPAADMDDFSRQ | 0.0 | 0.0 | 0.3 | 0.3 | 0.1 | 0.1 | 0.2 | 0.2 | 0.1 | 0.0 | 0.6 | 0.1 | 0.6 | 0.4 | 0.6 | 0.1 | 0.2 | 0.2 | 0.1 | 0.2 | Binding of serum SARS-green to linear peptides of protein N of SARS-CoV Urbani [2]: 0.3; Binding of serum SARS-yellow to linear peptides of protein N of SARS-CoV Urbani [2]: 0.6; Control Serum Blood-Bank Looped peptides [4]: 0.1; Control serum Blood-bank linear peptides [4]: 0.5; Control serum LUMC linear peptides [4]: 0.5; Control serum LUMC looped peptides [4]: 0.4
2 | VTPSGTWLTYHGAIK | 0.1 | 0.1 | 0.3 | 0.2 | 0.1 | 0.1 | 0.2 | 0.2 | 0.2 | 0.1 | 0.7 | 0.4 | 0.8 | 0.3 | 0.7 | 0.3 | 0.0 | 0.2 | 0.1 | 0.2 | Binding of serum SARS-green to linear peptides of protein N of SARS-CoV Urbani [2]: 0.5; Binding of serum SARS-yellow to linear peptides of protein N of SARS-CoV Urbani [2]: 0.5; Control Serum Blood-Bank Looped peptides [4]: 0.3; Control serum Blood-bank linear peptides [4]: 0.8; Control serum LUMC linear peptides [4]: 0.6; Control serum LUMC looped peptides [4]: 0.3
3 | VTQAFGRRGPEQTQG | – | – | – | 0.3 | – | 0.2 | – | 0.2 | – | 0.1 | – | 0.4 | – | 0.3 | – | 0.3 | 0.2 | 0.3 | 0.1 | 0.2 | Recognition of the peptide by the rabbit serum [1]: recognized; Binding of serum 1a to linear peptide (PEPSCAN-ELISA) [2]: 0.3; Binding of serum 1b to linear peptide (PEPSCAN-ELISA) [2]: 0.1; Binding of serum 2 to linear peptide (PEPSCAN-ELISA) [2]: 0.1; Binding of serum 6 to linear peptide (PEPSCAN-ELISA) [2]: 0.2; Binding of serum 37 to linear peptide (PEPSCAN-ELISA) [2]: 0.6; Binding of serum 62 to linear peptide (PEPSCAN-ELISA) [2]: 0.5; Binding of serum London to linear peptide (PEPSCAN-ELISA) [2]: 0.5; Binding of serum SARS-green to linear peptide (PEPSCAN-ELISA) [2]: 0.5; Binding of serum SARS-yellow to linear peptide (PEPSCAN-ELISA) [2]: 0.7; Binding of Control Serum Blood-Bank to Looped peptides [4]: 0.6; Binding of Control serum Blood-bank to linear peptides [4]: 0.8; Binding of Control serum LUMC to linear peptides [4]: 0.7; Binding of Control serum LUMC to looped peptides [4]: 0.5
4 | VWVATEGALNTPKDH | 0.1 | 0.4 | 0.2 | 0.3 | 0.1 | 0.3 | 0.2 | 0.6 | 0.2 | 0.4 | 0.8 | 0.6 | 0.7 | 0.6 | 0.6 | 1.2 | 0.7 | 0.6 | 0.1 | 0.3 | Binding of serum SARS-green to linear peptides of protein N of SARS-CoV Urbani [2]: 0.5; Binding of serum SARS-yellow to linear peptides of protein N of SARS-CoV Urbani [2]: 0.6; Binding of Control Serum Blood-Bank to Looped peptides [4]: 0.8; Binding of Control serum Blood-bank to linear peptides [4]: 0.6; Binding of Control serum LUMC to linear peptides [4]: 0.8; Binding of Control serum LUMC to looped peptides [4]: 0.6

Reference: patent US20070128217A1 (priority 2003, published 2007)
